Results reported in patent publication US5190923A, “Peptide compounds containing a cyclic amide structure” (Adir Et Compagnie, priority 1990, dated 1993).

Legend:
Assay type in all cases: in vivo
[1] = tested on: sodium-dependent choline uptake (HACU); experiment: Cholinergic deficit induced by barbiturate narcosis in mice (hippocampal HACU); conditions: mouse hippocampus
[2] = tested on: xylazine-induced loss of righting reflex; experiment: Xylazine induced inhibition of the righting reflex in rats; conditions: IP
Description: The administration of a central α2 agonist, xylazine, to rats leads to loss of the animal's righting reflex. This effect is antagonized by yohimbine (α2 antagonist) and by agents facilitating noradrenaline release.
TRH antagonizes the effect of xylazine, and the median effective dose is close to 10 mg/kg IP. Under the same conditions, the ED50 of the compounds of Examples 1 and 5 are 0.1 and 0.3 mg/kg, respectively.

[3] = tested on: oxotremorine-induced tremor; experiment: Oxotremorine-induced tremor in mice; conditions: for minimal active dose (potentiation of tremor): IP
Description: Administered at a dose of 0.5 mg/kg IP, oxotremorine, a non-selective M1 -M2 muscarinic agonist leads to cholinergic symptoms of central origin, such as tremor. In control animals, the maximum tremor-inducing effect is observed after 15 minutes, and this effect disappears completely in the course of 45 to 60 minutes.
The administration of TRH (10 mg/kg IP) 30 minutes before that of oxotremorine potentiates the tremor (+50%) at its peak of intensity (15 minutes), but prolongs it to only a very small extent (15 minutes:+20%). The minimal active dose is 5 mg/kg.
Under the same conditions, the compounds of the invention also exert the same potentiating effect, but at much lower minimal active doses, and this effect persists for a further 60 minutes after the injection of oxotremorine. Thus, the minimal active doses are, for example, as follows: […]

[4] = 30 minutes before oxotremorine 0.5 mg/kg IP

Compound | counteraction of the fall in HACU ([1]; 10 mg/kg IP, administered 30 minutes before pentobarbital) [%] | counteraction of the fall in HACU ([1]; 10 mg/kg IP, administered simultaneously with pentobarbital (60 mg/kg IP)) [%] | counteraction of the fall in HACU ([1]; 30 mg/kg IP, administered 30 minutes before pentobarbital) | median effective dose (ED50), antagonism of the effect of xylazine [2] [mg/kg] | potentiation of the tremor at its peak of intensity (15 minutes) ([3]; 10 mg/kg IP, 30 minutes before oxotremorine 0.5 mg/kg IP) | prolongation of the tremor ([3]; 10 mg/kg IP, 30 minutes before oxotremorine, printed time 15 minutes) | minimal active dose (potentiation of tremor) [3, 4] [mg/kg] | potentiation of the tremor measured at the peak ([3]; administered 60 minutes before the muscarinic agonist) | counteraction of the fall in HACU ([1]; 1 mg/kg IP, administered 30 minutes before induction of narcosis) [%] | counteraction of the fall in HACU ([1]; 3 mg/kg IP, administered 30 minutes before induction of narcosis) [%]
NC(=O)[C@@H]1CCCN1C(=O)[C@H](Cc1cnc[nH]1)NC(=O)[C@@H]1CCC(=O)N1 [TRH] | -1.9 | -35 | +4.8% | ~10 | +50% | +20% | 5 | no longer potentiates the tremor | – | –
AZEP-(S)(N.tau.-Me)His-(1S,3S,4R)ABH-NH2 [Example 1] | – | – | – | 0.1 | – | – | 0.3 | – | -25.5 | -61.1
